Usually GI50 stands for the concentration that inhibits growth by half.

One data set has as its system MCF7. The data set is described as follows: NCI screen antiproliferative activity, breast MCF7. As to the method: (§1) Cells of approximately 60 different human cancer cell lines were incubated for 48 h with five 10-fold dilutions of the tested compounds starting from 100 μM and then treated with sulforhodamine B dye. The ratios of recorded optical densities relative to that of the control were plotted as a function of the common logarithm of the tested compound concentrations. […] The GI50 and the mean graph midpoint (MGM) values of the prepared indenoisoquinolines in selected cell lines are presented in Table I.
(§2) The antiproliferative activity of each compound was determined in the National Cancer Institute (NCI) screen as described above. Cells of approximately 60 different human cancer cell lines were incubated for 48 h with five 10-fold dilutions of the test compounds starting from 100 μM, and then treated with sulforhodamine B dye. The ratios of recorded optical densities relative to those of the control were plotted as a function of the common logarithm of the tested compound concentrations. […] The GI50 and the mean graph midpoint (MGM) values of the prepared (aza)indeno-isoquinolines in selected cell lines are presented in Table 2.

Another data set deals with SN12C. Put plainly: NCI screen antiproliferative activity, renal SN12C. The procedure:
as §1, §2

A further data set concerns the target T1, human recombinant Top1 (Homo sapiens, UniProt P11387).
T1 construct: made in house
T1 sequence (P11387 1-765): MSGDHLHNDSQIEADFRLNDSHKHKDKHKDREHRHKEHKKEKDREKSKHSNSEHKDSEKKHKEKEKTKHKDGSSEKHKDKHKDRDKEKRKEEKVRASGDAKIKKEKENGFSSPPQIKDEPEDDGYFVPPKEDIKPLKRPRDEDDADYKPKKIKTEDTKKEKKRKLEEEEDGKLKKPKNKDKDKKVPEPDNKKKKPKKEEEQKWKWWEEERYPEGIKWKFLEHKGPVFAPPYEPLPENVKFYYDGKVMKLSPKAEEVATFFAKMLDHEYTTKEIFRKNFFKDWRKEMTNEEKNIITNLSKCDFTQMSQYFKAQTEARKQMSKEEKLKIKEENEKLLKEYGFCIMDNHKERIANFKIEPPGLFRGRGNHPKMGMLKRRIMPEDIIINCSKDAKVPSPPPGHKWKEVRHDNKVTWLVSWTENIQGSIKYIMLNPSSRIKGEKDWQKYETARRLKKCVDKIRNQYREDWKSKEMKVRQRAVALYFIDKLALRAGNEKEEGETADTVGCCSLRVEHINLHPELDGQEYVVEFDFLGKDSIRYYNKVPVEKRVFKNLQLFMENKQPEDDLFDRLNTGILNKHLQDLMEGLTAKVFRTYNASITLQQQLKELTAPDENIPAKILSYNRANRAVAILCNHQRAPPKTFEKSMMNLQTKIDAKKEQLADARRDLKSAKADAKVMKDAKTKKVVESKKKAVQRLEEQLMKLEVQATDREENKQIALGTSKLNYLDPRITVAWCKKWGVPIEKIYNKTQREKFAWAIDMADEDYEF
Put plainly: Top1-mediated DNA cleavage assay. In kind it is biochemical. The note with it: semiquantitative, relative to compounds 1 and 2. The procedure: Unincorporated [^32P]dGTP was removed using mini Quick […] columns (Roche, Indianapolis, Ind.), and the eluate containing the […] DNA substrate was collected. […] Aliquots of each reaction mixture were subjected to 20% denaturing PAGE. […] The DNA fragments were separated on a denaturing gel. […] All of the target compounds were tested for induction of DNA damage in Top1-mediated DNA cleavage assays, as described above.

Another data set relates to UACC-62. The data set is described as follows: NCI screen antiproliferative activity, melanoma UACC-62. As to the method:
as §1, §2

Another data set concerns HOP-62. Put plainly: NCI screen antiproliferative activity, lung HOP-62. As to the method: as §1, §2
The next data set deals with OVCAR-3. The data set is described as follows: NCI screen antiproliferative activity, ovarian OVCAR-3. As to the method:
as §1, §2

For another data set, the system named is HCT-116. Put plainly: NCI screen antiproliferative activity, colon HCT-116. As to the method: as §1, §2
The test system of the next data set is SF-539. The data set is described as follows: NCI screen antiproliferative activity, CNS SF-539. The procedure: as §1, §2
The test system of data set [1] is approximately 60 different human cancer cell lines. The data set is described as follows: NCI screen, mean graph midpoint over all cell lines. In kind it is cell-based. The following applies: all human cancer cell lines successfully tested, 48 h. The procedure: as §1, §2
The test system of the next data set is DU-145. Put plainly: NCI screen antiproliferative activity, prostate DU-145. The procedure:
as §1, §2

Where [2] appears, read: Homo sapiens, MCF7, 48 h, read-out: cytotoxicity (GI50) breast MCF7, 48 h, sulforhodamine B, single determination, Table 1.
[3] abbreviates: Homo sapiens, SN12C, 48 h, read-out: cytotoxicity (GI50) renal SN12C, 48 h, sulforhodamine B, single determination, Table 1.
Where [4] appears, read: Homo sapiens, UACC-62, 48 h, read-out: cytotoxicity (GI50) melanoma UACC-62, 48 h, sulforhodamine B, single determination, Table 1.
Where [5] appears, read: Homo sapiens, HOP-62, 48 h, read-out: cytotoxicity (GI50) lung HOP-62, 48 h, sulforhodamine B, single determination, Table 1.
The mark [6] stands for this setting: Homo sapiens, OVCAR-3, 48 h, read-out: cytotoxicity (GI50) ovarian OVCAR-3, 48 h, sulforhodamine B, single determination, Table 1.
Setting [7] is: Homo sapiens, HCT-116, 48 h, read-out: cytotoxicity (GI50) colon HCT-116, 48 h, sulforhodamine B, single determination, Table 1.

Where a name gives a salt, the structure may show the parent alone. Read-outs that look alike come from different tables or passages of the source.

Consider `COc1cc2c3c(n(CCCN(C)C)c(=O)c2cc1OC)-c1ncccc1C3=O` [Compound 19, 7-Aza-5,6-dihydro-6-(3-dimethylaminopropyl)-2,3-dimethoxy-5,11-dioxo-11H-indeno[1,2-c]isoquinoline Hydrochloride], for which the GI50 in the data set on MCF7 (setting [2]) came out at 0.44 µM; in the data set with SN12C (setting [3]) it was 3.16 µM; in the data set on SN12C (Homo sapiens, SN12C, 48 h, read-out: cytotoxicity (GI50) renal SN12C, 48 h, sulforhodamine B, single determination, Table 2), 3.2 µM; in the data set on UACC-62 (setting [4]) it was 13.2 µM; in the data set with UACC-62 (Homo sapiens, UACC-62, 48 h, read-out: cytotoxicity (GI50) melanoma UACC-62, 48 h, sulforhodamine B, single determination, Table 2), 13 µM; with HOP-62 (setting [5]), 3.39 µM. The GI50 in the data set on HOP-62 (Homo sapiens, HOP-62, 48 h, read-out: cytotoxicity (GI50) lung HOP-62, 48 h, sulforhodamine B, single determination, Table 2) was 3.4 µM; with OVCAR-3 (setting [6]), 3.55 µM; with OVCAR-3 (Homo sapiens, OVCAR-3, 48 h, read-out: cytotoxicity (GI50) ovarian OVCAR-3, 48 h, sulforhodamine B, single determination, Table 2), 3.6 µM; in the data set with HCT-116 (setting [7]), 1.58 µM; in the data set on HCT-116 (Homo sapiens, HCT-116, 48 h, read-out: cytotoxicity (GI50) colon HCT-116, 48 h, sulforhodamine B, single determination, Table 2), 1.6 µM; with SF-539 (Homo sapiens, 48 h, read-out: cytotoxicity (GI50) CNS SF-539, 48 h, sulforhodamine B, single determination, Table 2), 4.1 µM. Moreover, in the data set on DU-145 (Homo sapiens, DU-145, 48 h, read-out: cytotoxicity (GI50) prostate DU-145, 48 h, sulforhodamine B, single determination, Table 2), the GI50 is 1.7 µM. In addition, the “Top1 Cleavage” value on human recombinant Top1 (Table 1) and on human recombinant Top1 (Table 2) was “+++” throughout. The “MGM (mean graph midpoint for growth inhibition)” value is 4.50 µM in data set [1] (Table 1) and 4.5 µM in [1] (Table 2).
For `COc1cc2c3c(n(CCCN4CCOCC4)c(=O)c2cc1OC)-c1ncccc1C3=O` [Compound 22, 7-Aza-5,6-d hydro-6-(3-morpholinopropyl)-2,3-dimethoxy-5,11-dioxo-11H-indeno[1,2-c]isoquinolineHydrochloride], the GI50 is 0.052 µM with MCF7; 0.52 µM with SN12C; 0.3 µM with HOP-62; 0.37 µM in the data set with OVCAR-3; 0.22 µM in the data set on HCT-116; 0.29 µM with SF-539. This compound also returned a GI50 in the data set on DU-145 of 0.31 µM. Also, the “Top1 Cleavage” value on human recombinant Top1 (Table 1) and at human recombinant Top1 (Table 2) was “++” in each case. The “MGM (mean graph midpoint for growth inhibition)” value in data set [1] (Table 1) and in [1] (Table 2) was 0.30 µM each time.
`O=C1c2cccnc2-c2c1c1ccccc1c(=O)n2CCCn1ccnc1` [Compound 28, 7-Aza-5,6-dihydro-6-(3-(1H-imidazol-1-yl)propyl)-5,11-dioxo-11H-indeno[1,2-c]isoquinoline]: the 50% growth inhibitory concentration (GI50) with MCF7 was 3.39 µM; in the data set with SN12C it was 3.72 µM; in the data set on UACC-62 it was 35.5 µM; in the data set on HOP-62 it was 7.24 µM; in the data set with OVCAR-3, 8.71 µM; with HCT-116, 1.2 µM. The 50% growth inhibitory concentration (GI50) with SF-539 stood at 5.13 µM; in the data set with DU-145, 2.88 µM. Besides, the “Top1 Cleavage” value at human recombinant Top1 (Table 1) is reported as “++”. In addition, the “MGM (mean graph midpoint for growth inhibition)” value in [1] (Table 1) worked out at 7.24 µM.
Turning to `Cl.O=C1c2cccnc2-c2c1c1ccccc1c(=O)n2CCCNCCO` [Compound 30, 7-Aza-5,6-dihydro-6-(3-(2-hydroxyethylamino)propyl)-5,11-dioxo-11H-indeno[1,2-c]isoquinoline Hydrochloride], the GI50 amounted to 0.48 µM in the data set on MCF7; 0.76 µM with SN12C; 3.09 µM in the data set on UACC-62; 1.41 µM with HOP-62; 1.55 µM in the data set with OVCAR-3; 0.3 µM in the data set with HCT-116. Moreover, the values for the GI50 with SF-539 and in the data set on DU-145 were 0.87 µM and 0.41 µM, respectively. At human recombinant Top1 (Table 1), the “Top1 Cleavage” value is reported as “+ (+ weak activity;)”. In addition, in [1] (Table 1), the “MGM (mean graph midpoint for growth inhibition)” value worked out at 1.29 µM.
`COc1cc2c3c(n(CCCNCCO)c(=O)c2cc1OC)-c1ncccc1C3=O.Cl` [Compound 31, 7-Aza-5,6-dihydro-6-(3-(2-hydroxyethylamino)propyl)-2,3-dimethoxy-5,11-dioxo-11H-indeno[1,2-c]isoquinoline Hydrochloride]: the GI50 in the data set with MCF7 was 0.074 µM; in the data set with SN12C, 0.23 µM; in the data set with UACC-62, 0.12 µM; in the data set with HOP-62, 0.3 µM; with OVCAR-3, 0.34 µM; with HCT-116 it was 0.15 µM. The concentration for 50% growth inhibition (GI50) came to 0.26 µM in the data set on SF-539 and 0.32 µM in the data set with DU-145. The “MGM (mean graph midpoint for growth inhibition)” value in data set [1] (Table 1) was determined as 0.29 µM.
For `COc1cc2c3c(n(CCCN)c(=O)c2cc1OC)-c1ncccc1C3=O.Cl` [Compound 32, 7-Aza-5,6-dihydro-6-(3-aminopropyl)-2,3-dimethoxy-5,11-dioxo-11H-indeno[1,2-c]isoquinoline Hydrochloride], the 50% growth inhibitory concentration (GI50) was 49 µM with MCF7; 2.88 µM with SN12C; 8.13 µM in the data set with UACC-62; 3.02 µM with HOP-62; 1.58 µM with OVCAR-3; 0.38 µM in the data set with HCT-116. Further, the concentration for 50% growth inhibition (GI50) in the data set with SF-539 worked out at 2.19 µM; in the data set on DU-145, 1.62 µM. The “MGM (mean graph midpoint for growth inhibition)” value in data set [1] (Table 1) amounted to 2.09 µM.
On to `COc1cc2c3c(n(CCCN(C)C)c(=O)c2cc1OC)-c1ccccc1C3=O` [Compound 34, reference compound], for which the concentration for 50% growth inhibition (GI50) came to 6.17 µM in the data set with MCF7 (setting [2]); 11 µM in the data set on SN12C (setting [3]); 6.61 µM with UACC-62 (setting [4]); 11.5 µM with HOP-62 (setting [5]); 5.89 µM in the data set on OVCAR-3 (setting [6]); 2.45 µM with HCT-116 (setting [7]). Moreover, the GI50 with SF-539 (Homo sapiens, 48 h, read-out: cytotoxicity (GI50) CNS SF-539, 48 h, sulforhodamine B, single determination, Table 1) was found to be 6.17 µM; in the data set on DU-145 (Homo sapiens, DU-145, 48 h, read-out: cytotoxicity (GI50) prostate DU-145, 48 h, sulforhodamine B, single determination, Table 1), 4.47 µM. Further, the “MGM (mean graph midpoint for growth inhibition)” value in [1] (Table 1) was 6.17 µM.
As to `COc1cnc2c(c1)C(=O)c1c-2n(CCCN(C)C)c(=O)c2cc(OC)c(OC)cc12.Cl` [Compound 55, 7-Aza-5,6-dihydro-6-(3-dimethylaminopropyl)-2,3,9-trimethoxy-5,11-dioxo-11H-indeno[1,2-c]isoquinoline Hydrochloride], the concentration for 50% growth inhibition (GI50) was 0.13 µM in the data set on MCF7; 3.6 µM with SN12C; 3.9 µM with UACC-62; 0.92 µM in the data set with HOP-62; 2.9 µM in the data set with OVCAR-3; 1.5 µM in the data set on HCT-116. Besides, the concentration for 50% growth inhibition (GI50) is 1.1 µM in the data set on SF-539 and 0.88 µM in the data set with DU-145. At human recombinant Top1 (Table 2), the “Top1 Cleavage” value is listed as “+++”. Also, in data set [1] (Table 2), the “MGM (mean graph midpoint for growth inhibition)” value turned out to be 1.8 µM.

These data come from patent publication US8686146B2, “Azaindenoisoquinoline topoisomerase I inhibitors” (Purdue Research Foundation, priority 2012, dated 2014).
